# Assay results: US12472170B2, “Use of glutamate 2B receptor antagonists and sigma receptor agonists as antitussives” (Seyltx, Inc., priority 2019, dated 2025)
# Values joined by “and” are separate entries in the source; they are usually repeats but may differ in a detail not shown here. Equal values may be shown once.
# Tested on: citric acid (1M) evoked cough in guinea pigs
# Test: Citric acid (1M) aerosol-evoked coughs and sneezes in conscious guinea pigs after oral pre-treatment
# Format: in vivo, Male Dunkin Hartley guinea pigs
# Description: The guinea pig species used in one study was twenty four Male Dunkin Hartley guinea pigs, each weighing between 300 and 350 g, which were supplied by Marshall Bioresources Ltd, UK.
# A test compound, Ifenprodil, and Gefapixant (in powder form) were prepared and formulated by initially adding 100% propylene glycol at the required volume for the final treatment buffer. The additional buffer ingredients were added in a stepwise fashion, initially solutol and then captisol. Each ingredient was added in a volume equivalent to that which is required for the final volume of treatment buffer for the stock formulation.
# In particular, for Gefapixant, this was 0.7 mg/mL, a concentration that delivers 3.5 mg/Kg in a dose volume of 5 mL/Kg. For Ifenprodil, this was 0.3 mg/mL, a concentration that delivers 1.5 mg/Kg in a dose volume of 5 mL/Kg.
# Prior to the addition of each buffer ingredient, the test compound formulations were sonicated for 15 min using a Branson 1510 Sonicator. Afterwards, the initial formulation of the test compound and Gefapixant were diluted with a prepared buffer vehicle to provide additional dosing formulations. This was 0.01 to 0.2 mg/ml, preferably 0.06 mg/mL, a dose that delivers 0.3 mg/Kg in a dose volume of 5 mL/Kg.
# The final test compound buffer vehicle comprised of 10:10:80 mix of propylene glycol:20% Solutol in PBS:5% Captisol in PBS.
# All final test and control formulations were sonicated for 30 min prior to dosing to generate an even suspension or to ensure that the formulation had visibly dissolved.
# The animals were first pre-treated (5 mL/Kg, p.o.) with the vehicle, the test compound, or Gefapixant prior to tussive agent (citric acid) exposure, using the amounts set out in Table 1 below. In each case, the route of administration of the treatment was oral.
# Animals receiving Gefapixant (3.5 mg/Kg) were dosed 2 hours prior to tussive agent exposure. Animals receiving Ifenprodil (1.5 mg/Kg) were dosed 30 minutes prior to tussive agent exposure.
# 10 min prior to the tussive evaluation, each animal was individually placed into a purpose built exposure chamber with a supplied airflow through a nebuliser of 2 L/min, and allowed to settle into its new environment.
# Following the acclimatisation period, each animal was then exposed for 10 min to an aerosol of 1M citric acid using an ultrasonic nebuliser (Aerogen) set at a nominal liquid consumption rate of 0.6 mL/min.
# Coughs and sneezes elicited during the 10 minute aerosol of 1M citric acid, and a subsequent 5 minute observation period, were recorded manually to monitor the animal's welfare. […] The data was analysed for onset of cough, cough numbers and frequency, and sneezes.
# The following measurements and assessments were taken for each guinea pig: • Mean total number of coughs evoked in each treatment group • Mean onset of first cough in each group • Mean number of coughs per minute during citric acid exposure in each treatment group
# Inter-group deviations were statistically analyzed by a one-way analysis of variance (ANOVA). In the case of significant difference in the mean values among the different levels of treatment, comparisons versus the citric acid vehicle group were carried out using the Dunnett's test. p<0.05 was considered statistically significant.
# [1] = Mean of n=6 animals, 10 min Citric acid (1M) exposure, Gefapixant 3.5 mg/Kg p.o., Ifenprodil 1.5 mg/Kg
# [2] = Mean of n=6 animals, Post Exposure (5 mins) after 10 min Citric acid (1M), Gefapixant 3.5 mg/Kg p.o., Ifenprodil 1.5 mg/Kg
# [3] = Total of n=6 animals, 10 min Citric acid (1M) exposure, Gefapixant 3.5 mg/Kg p.o., Ifenprodil 1.5 mg/Kg
# [4] = Total of n=6 animals, Post Exposure (5 mins) after 10 min Citric acid (1M), Gefapixant 3.5 mg/Kg p.o., Ifenprodil 1.5 mg/Kg
# [5] = individual animals (ID 1-6), 10 min Citric acid (1M) exposure, Gefapixant 3.5 mg/Kg p.o., Ifenprodil 1.5 mg/Kg
# [6] = individual animals (ID 1-6), Post Exposure (5 mins) after 10 min Citric acid (1M), Gefapixant 3.5 mg/Kg p.o., Ifenprodil 1.5 mg/Kg
smiles,measurement,setting,value
"C[C@@H]([C@H](O)c1ccc(O)cc1)N1CCC(Cc2ccccc2)CC1 (racemic) [Ifenprodil, 4-[2-(4-benzylpiperidin-1-ium-1-yl)-1-hydroxypropyl] phenol; 2,3,4-trihydroxy-4-oxobutanoate]","Total Coughs, Mean","10 min citric acid (1M) exposure + 5 min post exposure, group mean, n=6",17.17
same,"Total Coughs, individual animal","10 min citric acid (1M) exposure + 5 min post exposure, individual animals 1-6",16 (2×) and 17 and 23 and 19 and 12
same,average number of coughs per animal (total number of coughs),"10 min citric acid (1M) exposure + 5 min recovery, Gefapixant 3.5 mg/Kg p.o. 2 hrs prior, Ifenprodil 1.5 mg/Kg p.o. 30 min prior, n=6",17.17 coughs per animal
same,reduction in mean cough frequency vs untreated control,"Ifenprodil 1.5 mg/kg (p<0.01), Gefapixant 3.5 mg/kg (p<0.05)",42%
same,"Sneezes, Observation Period 0-1, group Mean",[1],0.2
same,"Sneezes, Observation Period 1-2, group Mean",[1],0.5
same,"Sneezes, Observation Period 2-3, group Mean",[1],0.3
same,"Sneezes, Observation Period 3-4, group Mean",[1],0.3
same,"Sneezes, Observation Period 4-5, group Mean",[1],0.5
same,"Sneezes, Observation Period 5-6, group Mean",[1],0.3
same,"Sneezes, Observation Period 6-7, group Mean",[1],0.7
same,"Sneezes, Observation Period 7-8, group Mean",[1],0.5
same,"Sneezes, Observation Period 8-9, group Mean",[1],0.0
same,"Sneezes, Observation Period 9-10, group Mean",[1],0.0
same,"Sneezes, Observation Period 10-11, group Mean",[2],0.0
same,"Sneezes, Observation Period 11-12, group Mean",[2],0.0
same,"Sneezes, Observation Period 12-13, group Mean",[2],0.0
same,"Sneezes, Observation Period 13-14, group Mean",[2],0.0
same,"Sneezes, Observation Period 14-15, group Mean",[2],0.0
same,"Total Sneezes, group Mean","Mean of n=6 animals, whole observation period 0-15 (10 min Citric acid (1M) exposure + Post Exposure 5 mins), Gefapixant 3.5 mg/Kg p.o., Ifenprodil 1.5 mg/Kg",3.33
same,"Sneezes, Observation Period 0-1, group Total",[3],1.0
same,"Sneezes, Observation Period 1-2, group Total",[3],3.0
same,"Sneezes, Observation Period 2-3, group Total",[3],2.0
same,"Sneezes, Observation Period 3-4, group Total",[3],2.0
same,"Sneezes, Observation Period 4-5, group Total",[3],3.0
same,"Sneezes, Observation Period 5-6, group Total",[3],2.0
same,"Sneezes, Observation Period 6-7, group Total",[3],4.0
same,"Sneezes, Observation Period 7-8, group Total",[3],3.0
same,"Sneezes, Observation Period 8-9, group Total",[3],0.0
same,"Sneezes, Observation Period 9-10, group Total",[3],0.0
same,"Sneezes, Observation Period 10-11, group Total",[4],0.0
same,"Sneezes, Observation Period 11-12, group Total",[4],0.0
same,"Sneezes, Observation Period 12-13, group Total",[4],0.0
same,"Sneezes, Observation Period 13-14, group Total",[4],0.0
same,"Sneezes, Observation Period 14-15, group Total",[4],0.0
same,first onset of cough,"citric acid (1M) exposure, Gefapixant 3.5 mg/Kg p.o., Ifenprodil 1.5 mg/Kg p.o., group mean, n=6",59.8 s
same,average number of sneezes per animal,"citric acid (1M) exposure, Gefapixant 3.5 mg/Kg p.o., Ifenprodil 1.5 mg/Kg p.o., n=6",3.33 sneezes per animal
same,"Onset (sec), Mean","citric acid (1M) exposure, group mean, n=6",59.8 s
same,"Onset (sec), individual animal","citric acid (1M) exposure, individual animals 1-6",65 sec and 69 sec and 43 sec (2×) and 72 sec and 67 sec
same,"Sneezes, Observation Period 0-1",[5],0 (5×) and 1
same,"Sneezes, Observation Period 1-2",[5],1 (3×) and 0 (3×)
same,"Sneezes, Observation Period 2-3",[5],0 (4×) and 1 (2×)
same,"Sneezes, Observation Period 3-4",[5],1 (2×) and 0 (4×)
same,"Sneezes, Observation Period 4-5",[5],0 (4×) and 1 and 2
same,"Sneezes, Observation Period 5-6",[5],1 (2×) and 0 (4×)
same,"Sneezes, Observation Period 6-7",[5],1 (4×) and 0 (2×)
same,"Sneezes, Observation Period 7-8",[5],0 (3×) and 1 (3×)
same,"Sneezes, Observation Period 8-9",[5],0
same,"Sneezes, Observation Period 9-10",[5],0
same,"Sneezes, Observation Period 10-11",[6],0
same,"Sneezes, Observation Period 11-12",[6],0
same,"Sneezes, Observation Period 12-13",[6],0
same,"Sneezes, Observation Period 13-14",[6],0
same,"Sneezes, Observation Period 14-15",[6],0
same,Total Sneezes,"individual animals (ID 1-6), whole observation period 0-15 (10 min Citric acid (1M) exposure + Post Exposure 5 mins), Gefapixant 3.5 mg/Kg p.o., Ifenprodil 1.5 mg/Kg",4 and 3 (3×) and 5 and 2
same,"Cough, observation period 0-1, Mean","min 0-1 of citric acid (1M) exposure, group mean, n=6",0.7
same,"Cough, observation period 0-1, individual animal","min 0-1 of citric acid (1M) exposure, individual animals 1-6",0 (3×) and 1 (2×) and 2
same,"Cough, observation period 0-1, Total","min 0-1 of citric acid (1M) exposure, sum over 6 animals",4.0
same,"Cough, observation period 1-2, Mean","min 1-2 of citric acid (1M) exposure, group mean, n=6",1.5
same,"Cough, observation period 1-2, individual animal","min 1-2 of citric acid (1M) exposure, individual animals 1-6",1 (3×) and 2 (3×)
same,"Cough, observation period 1-2, Total","min 1-2 of citric acid (1M) exposure, sum over 6 animals",9.0
same,"Cough, observation period 2-3, Mean","min 2-3 of citric acid (1M) exposure, group mean, n=6",2.3
same,"Cough, observation period 2-3, individual animal","min 2-3 of citric acid (1M) exposure, individual animals 1-6",3 (4×) and 2 and 0
same,"Cough, observation period 2-3, Total","min 2-3 of citric acid (1M) exposure, sum over 6 animals",14.0
same,"Cough, observation period 3-4, Mean","min 3-4 of citric acid (1M) exposure, group mean, n=6",2.2
same,"Cough, observation period 3-4, individual animal","min 3-4 of citric acid (1M) exposure, individual animals 1-6",3 (2×) and 2 (3×) and 1
same,"Cough, observation period 3-4, Total","min 3-4 of citric acid (1M) exposure, sum over 6 animals",13.0
same,"Cough, observation period 4-5, Mean","min 4-5 of citric acid (1M) exposure, group mean, n=6",2.5
same,"Cough, observation period 4-5, individual animal","min 4-5 of citric acid (1M) exposure, individual animals 1-6",3 (4×) and 2 and 1
same,"Cough, observation period 4-5, Total","min 4-5 of citric acid (1M) exposure, sum over 6 animals",15.0
same,"Cough, observation period 5-6, Mean","min 5-6 of citric acid (1M) exposure, group mean, n=6",2.3
same,"Cough, observation period 5-6, individual animal","min 5-6 of citric acid (1M) exposure, individual animals 1-6",2 (4×) and 3 (2×)
same,"Cough, observation period 5-6, Total","min 5-6 of citric acid (1M) exposure, sum over 6 animals",14.0
same,"Cough, observation period 6-7, Mean","min 6-7 of citric acid (1M) exposure, group mean, n=6",1.3
same,"Cough, observation period 6-7, individual animal","min 6-7 of citric acid (1M) exposure, individual animals 1-6",1 (3×) and 2 and 0 and 3
same,"Cough, observation period 6-7, Total","min 6-7 of citric acid (1M) exposure, sum over 6 animals",8.0
same,"Cough, observation period 7-8, Mean","min 7-8 of citric acid (1M) exposure, group mean, n=6",1.7
same,"Cough, observation period 7-8, individual animal","min 7-8 of citric acid (1M) exposure, individual animals 1-6",1 (2×) and 2 (4×)
same,"Cough, observation period 7-8, Total","min 7-8 of citric acid (1M) exposure, sum over 6 animals",10.0
same,"Cough, observation period 8-9, Mean","min 8-9 of citric acid (1M) exposure, group mean, n=6",1.0
same,"Cough, observation period 8-9, individual animal","min 8-9 of citric acid (1M) exposure, individual animals 1-6",0 (2×) and 1 (3×) and 3
same,"Cough, observation period 8-9, Total","min 8-9 of citric acid (1M) exposure, sum over 6 animals",6.0
same,"Cough, observation period 9-10, Mean","min 9-10 of citric acid (1M) exposure, group mean, n=6",0.8
same,"Cough, observation period 9-10, individual animal","min 9-10 of citric acid (1M) exposure, individual animals 1-6",1 (3×) and 0 (2×) and 2
same,"Cough, observation period 9-10, Total","min 9-10 of citric acid (1M) exposure, sum over 6 animals",5.0
same,"Cough, observation period 10-11, Mean","min 10-11, post exposure, group mean, n=6",0.7
same,"Cough, observation period 10-11, individual animal","min 10-11, post exposure, individual animals 1-6",0 (2×) and 1 (4×)
same,"Cough, observation period 10-11, Total","min 10-11, post exposure, sum over 6 animals",4.0
same,"Cough, observation period 11-12, Mean","min 11-12, post exposure, group mean, n=6",0.2
same,"Cough, observation period 11-12, individual animal","min 11-12, post exposure, individual animals 1-6",1 and 0 (5×)
same,"Cough, observation period 11-12, Total","min 11-12, post exposure, sum over 6 animals",1.0
same,"Cough, observation period 12-13, Mean","min 12-13, post exposure, group mean, n=6",0.0
same,"Cough, observation period 12-13, individual animal","min 12-13, post exposure, individual animals 1-6",0
same,"Cough, observation period 12-13, Total","min 12-13, post exposure, sum over 6 animals",0.0
same,"Cough, observation period 13-14, Mean","min 13-14, post exposure, group mean, n=6",0.0
same,"Cough, observation period 13-14, individual animal","min 13-14, post exposure, individual animals 1-6",0
same,"Cough, observation period 13-14, Total","min 13-14, post exposure, sum over 6 animals",0.0
same,"Cough, observation period 14-15, Mean","min 14-15, post exposure, group mean, n=6",0.0
same,"Cough, observation period 14-15, individual animal","min 14-15, post exposure, individual animals 1-6",0
same,"Cough, observation period 14-15, Total","min 14-15, post exposure, sum over 6 animals",0.0
same,anti-tussive effect (in words),"oral administration, conscious guinea pigs with citric acid",shows efficacy in preventing and/or alleviating coughing
